Marks after values point to notes of the source that are not given here.
Experiment: Forelimb grip strength test
Assay type: in vivo, Swiss Albino mice
Settings: for Forelimb grip strength (gf) Day −0: Day −0 (baseline), mice, n = 8; for Forelimb grip strength (gf) Day −28: Day −28, one hour after treatment, oral once a day for 28 days; for Increase strength over Day −0: Day −28 minus Day −0; for Percentage Increase over control (grip strength): increase vs Exercise Control, 28 days
Procedure: Eight 8-week-old male Swiss Albino mice per experimental group were housed in an animal room at a constant temperature (22±3° C.) and humidity (30%-70%) under a 12:12 h light-dark cycle with standard laboratory diet (Purina 5L79, Rat and Mouse 18% protein; PMI Nutrition International, Brentwood, MO, USA). Distilled water was provided ad libitum. All animal experiments were reviewed and approved by the Institutional Animal Ethical Committee (IAEC) of Radiant Research Services Pvt. Ltd (Bangalore, India). All research was conducted in accordance with the guidelines of the committee for the purpose of control and supervision of experiments on animals (CPCSEA Registration Number-1803/PO/RcBi/S/2015/CPCSEA).
After one week of acclimation, the animals were randomly divided by body weight into different groups (n=8 per group in each test) for oral treatment once a day, at approximately same time each day (+1 hour), for 28 consecutive days: (1) vehicle control; (2) paraxanthine (3) dileucine; (4) paraxanthine+dileucine; (5) L-arginine; (6) L-arginine+dileucine; (7) L-citrulline; and (8) L-citrulline+dileucine. The dose administered to the mice was calculated using US Food and Drug Administration for human equivalence doses (HED), assuming a human weight of 60 kg. The following HED were used in this study: 2,000 mg dileucine (RAMPS™, Ingenious Ingredients, L.P., Lewisville, TX, USA; mouse 411 mg/kg bw), 100 mg paraxanthine, (ENFINITY™, Ingenious Ingredients, L.P Lewisville, TX, USA; mouse dose: 20.5 mg/kg bw/day); 3,000 mg L-arginine (Nanjing Nutrabuilding Bio-tech Co., LTD., No. 270 Jiqingmen Strect, Suning Huigu, Building E6, Room 2105, Nanjing, China 210017; mouse 616.55 mg/kg bw), 3,000 mg L-citrulline (Nanjing Nutrabuilding Bio-tech Co., LTD., No. 270 Jiqingmen Street, Suning Huigu, Building E6, Room 2105, Nanjing, China 210017; mouse 616.55 mg/kg bw). 0.5% Carboxy Methyl Cellulose sodium was used as vehicle and the test item formulations were prepared daily. Dosing was conducted via oral gavage using disposable polypropylene syringes with sterilized stainless steel gavage tubes. The food intake and water consumption were monitored daily, and BW was recorded weekly. The last dose on day 28 was given 1 hour prior to testing.
The forelimb grip strength was measured on day 0 and day 28 by using a stainless-steel grill to assess muscle strength (Orchid Scientific & Innovative India Pvt Ltd, India). Grip strength was measured one hour after treatment. Briefly, each mouse was placed on a grill chamber and the steel bar is inverted; grip strength is measured by recording the time each animal holds the steel bar. The maximum time for each trial was six minutes. Each animal performed three independent trials separated by six minutes intervals and the mean of the three trials was calculated.

SMILES	Forelimb grip strength (gf) Day −0	Forelimb grip strength (gf) Day −28	Increase strength over Day −0	Percentage Increase over control (grip strength)
CC(C)C[C@H](NC(=O)[C@@H](N)CC(C)C)C(=O)O [Dileucine, L-Leucyl-L-leucine]	99.25 gf	149.0*** gf	49.75 gf	76%
N=C(N)NCCC[C@H](N)C(=O)O [L-Arginine, L-arginine]	99.75 gf	139.13*** gf	39.38 gf	39%
NC(=O)NCCC[C@H](N)C(=O)O [L-Citrulline, L-citrulline]	97.63 gf	138.5*** gf	40.87 gf	45%
Cn1c(=O)[nH]c2ncn(C)c2c1=O [Paraxanthine, 1,7-dimethylxanthine]	98.38 gf	148.88*** gf	50.5 gf	79%
